Like-named read-outs stand apart in the source and are kept apart here.
What was measured:
Format in all cases: cell-based, Escherichia coli
[1] = system: wild-type (WT) K-12-Pore; test: microbe, parasite or virus in culture; conditions: Escherichia coli, technical duplicate
Outline: (§1)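 E. coli strains carrying a genomically integrated constitutive fhuA ΔC/Δ4L pore were grown 18 h in LB at 37 °C, then diluted 1/2000 in MHB II from OD600 ~1.0. Compounds were tested in duplicate, 2-fold serial titration, for 18 h at 37 °C with shaking. MIC came from OD600 with the pre-incubation background subtracted.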

[2] = system: ΔtolC-Pore; test: microbe, parasite or virus in culture; conditions: for MIC: Escherichia coli, 18 h, read-out: Minimum inhibitory concentration, ΔtolC-Pore; for Minimum inhibitory concentration (MIC), Pore ΔtolC: Table 10, with pore, technical duplicate
Outline: as §1

[3] = system: wild-type E. coli K-12 str. BW25113; test: microbe, parasite or virus in culture; conditions: Escherichia coli, BW25113, technical duplicate
Outline: (§2)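 Broth MIC in cation-adjusted Mueller-Hinton (MHB II) following twofold compound titration in duplicate. Bacteria were prepared at OD600 ~1.0 in PBS and diluted 1/2000. Endpoint OD600 after 18 h at 37 °C was corrected using the pre-incubation reading.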

[4] = system: E. coli EKO-35; test: microbe, parasite or virus in culture; conditions: for Fold change of MICs: EKO-35 compared to EKO-35 (reference); for MIC: Escherichia coli, EKO35, technical duplicate
Outline: as §2

[5] = system: E. coli ΔtolC; test: microbe, parasite or virus in culture; conditions: for MIC: Escherichia coli, 18 h, read-out: Minimum Inhibitory Concentration, ΔtolC; for Minimum inhibitory concentration (MIC), ΔtolC: Table 10, without pore, technical duplicate
Outline: as §2

[6] = system: EKO-35 araC::mdtEF; test: MIC susceptibility profiling, efflux platform; conditions: for Fold change of MICs: EKO-35 araC::mdtEF compared to EKO-35; for MIC: Escherichia coli, Table 13A, non-porinated, technical duplicate, read-out: Minimum Inhibitory Concentration, EKO-35 araC::mdtEF
Outline: as §2

[7] = system: EKO-35 araC::acrB; test: MIC susceptibility profiling, efflux platform; conditions: for Fold change of MICs: EKO-35 araC::acrB compared to EKO-35; for MIC: Escherichia coli, Table 13A, non-porinated, technical duplicate, read-out: Minimum Inhibitory Concentration, EKO-35 araC::acrB
Outline: as §2

[8] = system: EKO-35 strains producing different efflux pumps (EKO-35 araC::X); test: Checkerboard synergy (FICI) of PAβN or NMP with antibiotics
Protocol: Synergy measurement using checkerboard analysis was performed in 96-well microtiter plates using the microdilution broth method, according to CLSI guidelines (Patel J. B., 2015). The cell inocula were prepared using the colony resuspension method. The minimum inhibitory concentrations (MICs) were defined as the lowest concentration that provided no growth, as determined by measurement of the OD600nm using a Synergy H1 microplate reader (BioTek). Susceptibility testing was performed in MHB II with a final volume of 100 μL. PAI3N (Bachem Americas) was solubilized in MHB II. […] Solvent controls were included in each plate.
The Fractional Inhibitory Concentration Index (FICI) was used to assess the synergy of PAI3N in combination with different antibiotics. The FICI represents the ΣFIC of each drug. The FICI for each drug was calculated using the following formula: FICI=FICA+FICB=(CA/MICA)+(CB/MICB). Where MICA and MICB are the MICs of drugs A (PAI3N/NMP) and B (antibiotic) alone, and CA and CB are the MICs of the drugs in combination. The effects of PAβN or NMP in combination with antibiotics were classified as: synergistic (FICI<0.5), additive (FICI>0.5-1.0), indifferent (FICI>1.0-2.0), and antagonistic (FICI>2.0). Fold increases in resistance provided by efflux pumps were calculated by dividing the MIC values of strains expressing efflux pumps by the MIC value of EKO-35.

[9] = system: EKO-35-Pore; test: MIC susceptibility profiling, porinated strain; conditions: for Fold changes of MICs: EKO-35-Pore compared to EKO-35-Pore (reference); for MIC: Escherichia coli, technical duplicate
Outline: as §1

[10] = Table 10, with pore, read-out: Minimum inhibitory concentration (MIC), Pore K-12
[11] = Table 14A, porinated, read-out: Minimum inhibitory concentration, K-12 (WT)-Pore
[12] = Table 10, without pore, read-out: Minimum inhibitory concentration (MIC), K-12
[13] = Table 13A, non-porinated, read-out: Minimum Inhibitory Concentration, K-12
[14] = Table 10, without pore, read-out: Minimum inhibitory concentration (MIC), EKO-35
[15] = Table 13A, non-porinated, read-out: Minimum Inhibitory Concentration, EKO-35
[16] = EKO-35 acrB, antibiotic in combination with PAβN
[17] = strain EKO-35 acrB, NMP + antibiotic
[18] = strain EKO-35 acrB, antibiotic in combination with NMP
[19] = Table 10, with pore, read-out: Minimum inhibitory concentration (MIC), Pore EKO-35
[20] = Table 14A, porinated, read-out: Minimum inhibitory concentration, EKO-35-Pore
[21] = EKO-35 mdtEF, PAβN + antibiotic
[22] = strain EKO-35 acrEF, NMP + antibiotic
[23] = strain EKO-35 mdtEF, NMP + antibiotic

CC(=O)NC[C@H]1CN(c2ccc(N3CCOCC3)c(F)c2)C(=O)O1 [linezolid]
MIC [1, 10]: 125 µg/mL | MIC [1, 11]: 125 µg/mL | MIC [2]: 3.91 µg/mL | Minimum inhibitory concentration (MIC), Pore ΔtolC [2]: 3.906 µg/mL | MIC [3, 12]: 500 µg/mL | MIC [3, 13]: 500 µg/mL | Fold change of MICs [4]: 1 fold | MIC [4, 14]: 7.81 µg/mL | MIC [4, 15]: 7.81 µg/mL | MIC [5]: 7.81 µg/mL | Minimum inhibitory concentration (MIC), ΔtolC [5]: 7.813 µg/mL | Fold change of MICs [6]: 1 fold | MIC [6]: 3.91 µg/mL | Fold change of MICs [7]: 32 fold | MIC [7]: 250 µg/mL | Effect ([8]; EKO-35 acrB, NMP + antibiotic): Synergistic | FICI ([8]; EKO-35 acrB, NMP + antibiotic): 0.281 | Effect ([8]; EKO-35 acrB, PAβN + antibiotic): Synergistic | MICb Combined [8, 16]: 16 µg/mL | Effect [8, 17]: Synergistic (Synergy (FICI ≤0.5)) | FICI [8, 17]: 0.281 | MICb Combined [8, 18]: 8 µg/mL | Fold changes of MICs [9]: 1 fold | MIC [9, 19]: 3.91 µg/mL | MIC [9, 20]: 3.91 µg/mL

CC[C@H]1OC(=O)[C@H](C)[C@@H](O[C@H]2C[C@@](C)(OC)[C@@H](O)[C@H](C)O2)[C@H](C)[C@@H](O[C@@H]2O[C@H](C)C[C@H](N(C)C)[C@H]2O)[C@](C)(O)C[C@@H](C)C(=O)[C@H](C)[C@@H](O)[C@]1(C)O [erythromycin]
MIC [1, 10]: 6.25 µg/mL | MIC [1, 11]: 6.25 µg/mL | MIC [2]: 0.195 µg/mL | Minimum inhibitory concentration (MIC), Pore ΔtolC [2]: 0.195 µg/mL | MIC [3, 12]: 100 µg/mL | MIC [3, 13]: 100 µg/mL | MIC [4, 14]: 3.12 µg/mL | MIC [4, 15]: 3.12 µg/mL | MIC [5]: 3.12 µg/mL | Minimum inhibitory concentration (MIC), ΔtolC [5]: 3.125 µg/mL | MIC [6]: 50 µg/mL | MIC [7]: 100 µg/mL | Effect ([8]; EKO-35 acrB, NMP + antibiotic): Additive | FICI ([8]; EKO-35 acrB, NMP + antibiotic): 0.531 | Effect ([8]; EKO-35 acrB, PAβN + antibiotic): Synergistic | FICI ([8]; EKO-35 acrB, PAβN + antibiotic): 0.078 | MICb Alone ([8]; EKO-35 acrB, antibiotic alone (PAβN checkerboard)): 64 µg/mL | MICb Combined [8, 16]: 1 µg/mL | FICI ([8]; EKO-35 acrEF, NMP + antibiotic): 2.000 | Effect ([8]; EKO-35 acrEF, PAβN + antibiotic): Synergistic | MICb Alone ([8]; EKO-35 acrEF, antibiotic alone (PAβN checkerboard)): 8 µg/mL | MICb Combined ([8]; EKO-35 acrEF, antibiotic in combination with PAβN): 0.5 µg/mL | Effect ([8]; EKO-35 mdtEF, NMP + antibiotic): Synergistic | FICI ([8]; EKO-35 mdtEF, NMP + antibiotic): 0.250 | Effect [8, 21]: Synergistic | FICI [8, 21]: 0.094 | MICb Alone ([8]; EKO-35 mdtEF, antibiotic alone (PAβN checkerboard)): 16 µg/mL | MICb Combined ([8]; EKO-35 mdtEF, antibiotic in combination with PAβN): 0.5 µg/mL | Effect ([8]; EKO-35 mexCD, NMP + antibiotic): Synergistic | Effect ([8]; EKO-35 mexCD, PAβN + antibiotic): Synergistic | MICb Alone ([8]; EKO-35 mexCD, antibiotic alone (PAβN checkerboard)): 8 µg/mL | MICb Combined ([8]; EKO-35 mexCD, antibiotic in combination with PAβN): 0.5 µg/mL | Effect [8, 17]: Additive (additive (FICI >0.5-1.0)) | FICI [8, 17]: 0.531 | MICb Combined [8, 18]: 64 µg/mL | Effect [8, 22]: — (indifferent (FICI >1.0)) | FICI [8, 22]: 2.000 | MICb Alone ([8]; strain EKO-35 acrEF, antibiotic alone): 8 µg/mL | MICb Combined ([8]; strain EKO-35 acrEF, antibiotic in combination with NMP): 8 µg/mL | Effect [8, 23]: Synergistic (Synergy (FICI ≤0.5)) | FICI [8, 23]: 0.250 | MICb Alone ([8]; strain EKO-35 mdtEF, antibiotic alone): 64 µg/mL | MICb Combined ([8]; strain EKO-35 mdtEF, antibiotic in combination with NMP): 8 µg/mL | Effect ([8]; strain EKO-35 mexCD, NMP + antibiotic): Synergistic (Synergy (FICI ≤0.5)) | MICb Alone ([8]; strain EKO-35 mexCD, antibiotic alone): 16 µg/mL | MICb Combined ([8]; strain EKO-35 mexCD, antibiotic in combination with NMP): 2 µg/mL | MIC [9, 19]: 0.195 µg/mL | MIC [9, 20]: 0.195 µg/mL

Nc1ccc(S(=O)(=O)Nc2nccs2)cc1 [Sulfathiazole]
MIC [1, 10]: 5 µg/mL | MIC [1, 11]: 5 µg/mL | MIC [2]: 2.5 µg/mL | Minimum inhibitory concentration (MIC), Pore ΔtolC [2]: 2.5 µg/mL | MIC [3, 12]: 5 µg/mL | MIC [3, 13]: 5 µg/mL | Fold change of MICs [4]: 1 fold | MIC [4, 14]: 10 µg/mL | MIC [4, 15]: 10 µg/mL | MIC [5]: 5 µg/mL | Minimum inhibitory concentration (MIC), ΔtolC [5]: 5 µg/mL | Fold change of MICs [6]: 1 fold | MIC [6]: 10 µg/mL | Fold change of MICs [7]: 1 fold | MIC [7]: 10 µg/mL | Fold changes of MICs [9]: 1 fold

Reference: patent US20230407243A1, “GENETIC PLATFORM TO INVESTIGATE THE FUNCTIONS OF BACTERIAL DRUG EFFLUX PUMPS” (priority 2022, published 2023)
